Like-named read-outs stand apart in the source and are kept apart here.
What was measured:
[1] = Dynamic vapor sorption (DVS) analysis with post-DVS XRPD; type: physicochemical; conditions: for Hygroscopicity by DVS: 25° C., 5 to 95% RH
Description: DVS analysis was carried out using a TA Instruments Q5000 Dynamic Vapor Sorption analyzer. The instrument was calibrated with standard weights and a sodium bromide standard for humidity. Approximately 5-25 mg of sample was loaded into a metal-coated quartz pan for analysis. The sample was analyzed at 25° C. with a maximum equilibration time of one hour in 10% relative humidity (RH) steps from 5 to 95% RH (adsorption cycle) and from 95 to 5% RH (desorption cycle). The movement from one step to the next occurred either after satisfying the equilibrium criterion of 0.01% weight change or, if the equilibrium criterion was not met, after one hour. The percent weight change values were calculated using Microsoft Excel®.

[2] = Estimated solubility of MDMA salts (solvent added in aliquots, visual inspection); type: physicochemical
[3] = Hygroscopicity of MDMA salts at 75% RH, visual assessment after 24 hours; type: physicochemical; conditions: visual assessment after exposure to 75% RH (room temp) for 24 hours
Description: A small amount of each salt was placed in a glass vial and exposed to 75% relative humidity for 24 hours. […] That is, the solids remained free flowing.
All materials having a unique X-ray powder diffraction (XRPD) pattern were characterized by differential scanning calorimetry (DSC), thermogravimetric analysis (TG), and ^1H nuclear magnetic resonance (NMR) spectroscopy. The hygroscopicity of each salt at 75% RH was also evaluated. The water solubility of each salt was estimated by adding water in aliquots to weighed portions of solid at room temperature while sonicating. Whether dissolution had occurred was judged by visual inspection after addition of each solvent aliquot. Solubility numbers were calculated by dividing the weight of the sample by the total amount of solvent used to dissolve the sample. The actual solubilities may be greater than the numbers calculated because of the use of solvent aliquots that were too large or because of slow dissolution rates.

[4] = cited from earlier work
[5] = cited from earlier work; remark: listed apart in the source
[6] = system: participants diagnosed with at least moderate post-traumatic stress disorder (PTSD); test: Double-blind, randomized, placebo-controlled clinical trial of MDAI-assisted psychotherapy in PTSD; type: in vivo, human
Description: A multicenter, randomized, double-blind, placebo-controlled trial is conducted to assess the efficacy and safety of MDAI-assisted psychotherapy versus psychotherapy with placebo control in participants diagnosed with at least moderate post-traumatic stress disorder (PTSD).
This multicenter, randomized, double-blind, placebo-controlled trial is conducted at various sites in the United States with IRB approval from each study site. A flexible dose of MDAI hydrochloride salt or placebo, followed by a supplemental half-dose unless contraindicated by patient's previous response or medical history, is also administered during the Treatment Period with psychotherapy in at least 3 blinded monthly Experimental Sessions. The Supplemental Dose extends the duration of drug effects on the participants during an Experimental Session. An optional Risk Evaluation and Mitigation Strategy (REMS) Protocol may be implemented for MDAI and placebo-groups. The Treatment Period lasts for approximately 12 weeks. During the Treatment Period, each Experimental Session is followed by three Intervening Sessions of non-drug psychotherapy. Each Experimental Session involves an overnight stay. The Primary Outcome measure, the change in Clinician Administered PTSD Scale for DSM-5 (CAPS-5), is determined by a blinded Independent Rater (IR) pool multiple times throughout the study. The study consists of separate periods for each participant. Initially, prospective participants undergo a Screening Period involving an initial eligibility assessment, a medical history intake, informed consent, and enrollment of eligible participants. Next, a Preparation Period is undertaken for enrolled participants involving medication tapering and clinical baseline assessments to confirm each participant meets enrollment criteria. As part of the Preparation Period, a detailed assessment of co-morbidities to PTSD is recorded. Participants may remain on prescribed courses of selective serotonin reuptake inhibitor (SSRI) or serotonin and norepinephrine reuptake inhibitor (SNRI) treatment. Dosages and/or frequency of administration of a prescribed SSRI or SNRI may be adjusted to fit within study parameters. Participants may be required to taper a prescribed course of medication in order to maintain eligibility within the study. The Treatment Period consists of three monthly Experimental Sessions and associated Intervening Sessions of integrative behavioral psychotherapy. The Treatment Period lasts approximately 12 weeks. Following the Treatment Period is a Follow-up Period and Study Conclusion. During the Follow-up Period and Study Conclusion, participants complete 4 weeks with no study visits, followed by a Study Conclusion visit.
This study compares the effects of three blinded Experimental Sessions of psychotherapy in combination with flexible doses of MDAI or placebo administered as described below. Non-drug preparatory and intervening psychotherapy sessions are also included. Patient's weight is determined for dosage calculation. Initial dose is 100 mg unless this will result in a dosage of less than 1.5 mg/kg of patient weight. Initial dose thereby adjusted upward in 50 mg increments to deliver the lowest dose possible of at least 1.5 mg/kg of patient weight. Initial dose for Experimental Session 2 and 3 is cumulative dose calculated by adding the initial dose plus REMS protocol dose used the previous Experimental Session for each patient.
Randomization occurs prior to the initiation of Experimental Session 1. […]

Male Sprague-Dawley rats = test: Rat elevated zero-maze study with MDAI and chlordiazepoxide; type: in vivo
Description: Three rats from the vehicle group, 3 rats from the 2.5 mg/kg MDAI group, and 3 rats from the CDP group were tested on a separate day from the other rats.

[7] = cited from earlier work; remark: listed apart in the source
[8] = Physical stability of MBDB salts at 40° C./75% RH; type: physicochemical
Description: During the screen, a single crystal Maleate 1 of sufficient size and quality was obtained from a vapor diffusion experiment with ethanol and hexane. The crystal structure is reported elsewhere but the data confirmed the anhydrous/unsolved nature of the material. […] Two new crystalline forms of MBDB Maleate were observed during the screening designated as MBDB Maleate 2 and MBDB Maleate 3 (FIG. 96, 97). Additional characterization of these samples was conducted to better understand the nature of the materials produced, as shown below. MBDB Maleate 2 was generated once from a cooling crystallization from dioxane. The proton nuclear magnetic resonance (NMR) spectrum was consistent with a monomaleate salt of MBDB and contained residual dioxane. Only a limited amount of material was recovered so the only additional characterization that could be completed was differential scanning calorimetry (DSC). The DSC thermogram appears consistent with an anhydrous/unsolvated form with a likely melt at 96° C. (FIG. 100). […] An attempt was made to reproduce Maleate 2 using the same conditions and seeds of Maleate 2. PXRD analysis of the recovered solids however was consistent with Maleate 1. MBDB Maleate 3 was isolated from an evaporation experiment involving chloroform and ethyl acetate. NMR analysis of the material was consistent with a mono-maleate salt of MBDB. Thermal analysis was consistent with an anhydrous/unsolvated material with a likely melting point of 73° C. (FIG. 101). […] No additional characterization was completed on this sample due to the limited amount of material that was recovered.

[9] = Solid-form stability of MBDB maleate forms (ball milling, drying, interconversion slurry); type: physicochemical
Description: During the screen, a single crystal Maleate 1 of sufficient size and quality was obtained from a vapor diffusion experiment with ethanol and hexane. The crystal structure is reported elsewhere but the data confirmed the anhydrous/unsolved nature of the material. […] Two new crystalline forms of MBDB Maleate were observed during the screening designated as MBDB Maleate 2 and MBDB Maleate 3 (FIG. 96, 97). Additional characterization of these samples was conducted to better understand the nature of the materials produced, as shown below. MBDB Maleate 2 was generated once from a cooling crystallization from dioxane. The proton nuclear magnetic resonance (NMR) spectrum was consistent with a monomaleate salt of MBDB and contained residual dioxane. Only a limited amount of material was recovered so the only additional characterization that could be completed was differential scanning calorimetry (DSC). The DSC thermogram appears consistent with an anhydrous/unsolvated form with a likely melt at 96° C. (FIG. 100). […] An attempt was made to reproduce Maleate 2 using the same conditions and seeds of Maleate 2. PXRD analysis of the recovered solids however was consistent with Maleate 1. MBDB Maleate 3 was isolated from an evaporation experiment involving chloroform and ethyl acetate. NMR analysis of the material was consistent with a mono-maleate salt of MBDB. […]

[10] = oral, people, MDAI Dosages (psychonautwiki)

CNC(C)Cc1ccc2c(c1)OCO2.CNC(C)Cc1ccc2c(c1)OCO2.O=C(O)/C=C/C(=O)O (stereo not shown) [Fumarate]
Hygroscopicity by DVS ([1]; listed as MDMA Hemi-Fumarate): Slightly hygroscopic
Hygroscopicity by DVS ([1]; listed as MDMA hemi-fumarate): slightly hygroscopic
Post-DVS XRPD (form change) ([1]; solids after DVS analysis): Unchanged
Solubility ([2]; 1,4-dioxane): <1000 µg/mL
Solubility ([2]; 1:1 MeOH:chloroform (CHCl3)): 35000 µg/mL
Solubility ([2]; 2-propanol (IPA)): <1000 µg/mL
Solubility ([2]; 95:5 ACN:water): 4000 µg/mL
Solubility ([2]; 95:5 EtOH:water): 15000 µg/mL
Solubility ([2]; 95:5 IPA:water): 5000 µg/mL
Solubility ([2]; 95:5 THF:water): 14000 µg/mL
Solubility ([2]; 95:5 acetone:water): 2000 µg/mL
Solubility ([2]; 95:5 dioxane:water): 6000 µg/mL
Solubility ([2]; acetone): <1000 µg/mL
Solubility ([2]; acetonitrile (ACN)): <1000 µg/mL
Solubility ([2]; dichloromethane (DCM)): <1000 µg/mL
Solubility ([2]; diethyl ether (Et2O)): <1000 µg/mL
Solubility ([2]; ethanol (EtOH)): 4000 µg/mL
Solubility ([2]; ethyl acetate (EtOAc)): <1000 µg/mL
Solubility ([2]; methanol (MeOH)): 47000 µg/mL
Solubility ([2]; tetrahydrofuran (THF)): <1000 µg/mL
Solubility ([2]; water): 260000 µg/mL
Hygroscopic at 75% RH? [3]: no evidence of hygroscopicity and No

CNC(C)Cc1ccc2c(c1)OCO2.CNC(C)Cc1ccc2c(c1)OCO2.O=C(O)[C@@H](O)[C@H](O)[C@H](O)[C@@H](O)C(=O)O (stereo not shown) [Galactarate (Mucate)]
Hygroscopic at 75% RH? [3]: no evidence of hygroscopicity and No

CCC(Cc1ccc2c(c1)OCO2)NC (stereo not shown) [MBDB, 1-(benzo[d][1,3]dioxol-5-yl)-N-methylbutan-2-amine]
Effects: Coming Down, Time After Dose ([4]; Duration of effects of MBDB in people, adapted from PiHKAL 1991): ~90 min
Reported time to achieve peak effects ([4]; after dosing): 0.75 to 1 h
Oral MBDB Dose, Drug Activity Level: Very Strong ([4]; oral, people): ≥350 mg
Oral dose for Drug Activity Level Threshold [5, 10]: 40 mg
Oral dose for drug activity level Very Strong [5, 10]: ≥300 mg

NC1Cc2cc3c(cc2C1)OCO3 [MDAI, 5,6-methylenedioxy-2-aminoindane]
Reported time to achieve peak effects ([5]; after dosing): 0.75 to 2 h
Daytime sleepiness (ESS) ([6]; Study Conclusion): significant improvement in lessening daytime sleepiness
Clinician-rated functional impairment score (SDS) ([6]; Study Conclusion, vs placebo): significant improvement in clinician-rated functional impairment score
Depression (HAM-D) ([6]; Study Conclusion, vs placebo): significant improvement depression
Change in CAPS-5 assessment ([6]; Study Conclusion, vs placebo, hydrochloride salt with psychotherapy): significant mean reduction in CAPS-assessment compared to the placebo group
Adverse anxiogenic incidents ([6]; vs placebo-treated controls): without a significant increase in adverse anxiogenic incidents
Percentage of time in the open arms (% TO) (Male Sprague-Dawley rats; 0.625 mg/kg ip): numerical increase in % TO that was greater than vehicle or any other dose of MDAI
Percentage of time in the open arms (% TO) (Male Sprague-Dawley rats; doses too low or too high (0.15, 0.31, 1.25, 2.5)): opposite effect on % TO
Total open arm entries (Male Sprague-Dawley rats; higher and lower doses): trended towards an anxiogenic effect
Total open arm entries (Male Sprague-Dawley rats; middle dose): increase vs placebo that trended towards significance

CCNC(C)Cc1ccc2c(c1)OCO2 (stereo not shown) [MDE, N-ethyl-3,4-methylenedioxyamphetamine]
Reported time to achieve peak effects ([7]; after dosing): 1 to 2 h
Oral dose for drug activity level Very Strong ([7]; oral): ≥225 mg

CCC(Cc1ccc2c(c1)OCO2)NC.O=C(O)/C=C\C(=O)O (stereo not shown) [Maleate 1]
Hygroscopicity by DVS [1]: minimal water sorption over RH range
DVS weight gain ([1]; at 95% RH, listed as MBDB Maleate Form1): 0.6% wt gain
Hygroscopic? ([1]; based on moisture uptake at 95% observed during DVS analysis): Slightly
Physical stability by PXRD ([8]; 40° C./75% RH for 50 days): no change
Physical Stability ([8]; 40° C./75% RH overnight): No change
Physical Stability ([8]; after 1 day at 40° C./75% RH): No visible change
Stability to ball milling (recovered solids vs starting material) ([9]; ball milled): stable under mechanical stressing

CCC(Cc1ccc2c(c1)OCO2)NC.O=C(O)/C=C\C(=O)O (stereo not shown) [Maleate 3]
Form stability on drying (PXRD) ([9]; mixture of Maleate 3 and Maleate 1 dried at 46° C. overnight, recovered solids Maleate 1): metastable under these conditions

CNC(C)Cc1ccc2c(c1)OCO2.O=C(O)/C=C\C(=O)O (stereo not shown) [Maleate Form 1]
Hygroscopic at 75% RH? [3]: No

CNC(C)Cc1ccc2c(c1)OCO2.O=C(O)/C=C\C(=O)O (stereo not shown) [Maleate Form 2]
Hygroscopic at 75% RH? [3]: No

CNC(C)Cc1ccc2c(c1)OCO2.O=P(O)(O)O.O=P(O)(O)O (stereo not shown) [Phosphate]
Hygroscopic at 75% RH? [3]: no evidence of hygroscopicity and No

CNC(C)Cc1ccc2c(c1)OCO2.O=C(O)CCC(=O)O (stereo not shown) [Succinate]
Hygroscopic at 75% RH? [3]: No

From patent US11958821B2, “Phenethylamine compounds salts, polymorphic forms and methods of use thereof” (Terran Biosciences Inc., priority 2021, dated 2024)
